Laboratory results from patent publication US10836954B2 (priority 2015, dated 2020).

Tests used:
Pseudomonas Fluorescens [1] = format: cell-based; details: breaker 1.0 gpt added to 0.25 gpt biocide; 1% KCl water pH 7.7, 77° F., 1 h and 5 h
Experimental: 500 mL of 1% KCl water, buffered with sodium bicarbonate to pH 7.7 was inoculated with 10 mL of a Nutrient Broth containing live Pseudomonas f. and blended on a Waring lab blender at 2000 rpm for 5 minutes. After blending, it was separated into 30 mL samples in separate bottles. The first and last bottles were left without biocide or breaker to act as controls. The remaining samples were treated with varying concentrations of biocide and oxidizing breakers.
(§1) Biocidal activity analysis was completed using a […]® PhotonMaster™ luminometer and Quench-Gone™ Organic Modified (QGO-M) ATP test kit. At the initial time (Time 0), both control samples were tested using the ATP kit. All samples were then incubated at 77° F. All samples (5 mL) were then tested using the ATP kit at one hour and again at 5 hours.

Pseudomonas Fluorescens [2] = details: well water, 72° F.
Experimental: The biocidal activity of THPS/oxidizing breaker compositions against Pseudomonas Fluorescens was examined. In the first experiment, 2 L of well water was inoculated with 4 mL of a Nutrient Broth containing live Pseudomonas f. and stirred using an overhead mixer at 2000 rpm. After thorough mixing, and with the mixer running, 150 mL samples were taken with a syringe and inserted into separate bottles. The first and last bottles were left without biocide or breaker to act as controls. The remaining samples were treated with varying concentrations of biocide and oxidizing breakers.
as §1, with “left” for “incubated”, “ambient lab temperature (72° F.).” for “77° F.”, “(20 mL each)” for “(5 mL)”, “and” for “and again”, “24” for “5”

Compound: OO [hydrogen peroxide 7%, hydrogen peroxide]
- effect of added breaker on decrease in microbial activity (ATP analysis) (Pseudomonas Fluorescens [1]): may be accelerated or enhanced slightly

Compound: tetrakis(hydroxymethyl)phosphonium sulphate [THPS]
- compatibility of biocidal activity with oxidizing breakers (ATP analysis) (Pseudomonas Fluorescens [2]; THPS 20% 0.25 or 0.50 gpt with sodium persulfate, hydrogen peroxide 7% or sodium chlorite 8%, 1 h and 24 h): no apparent incompatibility
- effect of addition of the breakers on biocidal properties (ATP analysis) (Pseudomonas Fluorescens [2]; THPS concentration of 0.25 gpt, 1 h and 24 h (FIG. 5)): appears to enhance or accelerate the biocidal properties

Compound: sodium chlorite [sodium chlorite 8%]
- effect of added breaker on decrease in microbial activity (ATP analysis) (Pseudomonas Fluorescens [1]): may be accelerated or enhanced slightly
